Experimental data taken from US20250002854A1, “METHODS OF GENERATING POPULATIONS OF TUMOUR-INFILTRATING T CELLS” (LYTIX BIOPHARMA AS, priority 2016, published 2025).
“Also recorded” adds a separate entry of the source. Square brackets hold non-standard residues; d marks the D form. Ends that are not written are not given here. Dip = N[C@H](C(=O)O)C(c1ccccc1)c1ccccc1

Tests used:
murine B16 melanomas = assay: Murine melanoma model, intratumoural injections of LTX-401; type: in vivo
B16F1 cells = assay: LysoTracker DND-26, flow cytometry and confocal microscopy; type: cell-based, murine; conditions: 27 μM, 60 minutes
Procedure: Flow cytometry: B16F1 cells were seeded in 6-well plates and allowed to adhere overnight. […] Untreated cells were used as a control. Cells were trypsinized and investigated on a FACS Calibur Flow cytometer, and the results were processed using FlowJo Software (Tree Star, Inc., Ashland, OR, USA). PI was utilized in some experiments to gate away cells with compromised plasma membrane.
Confocal microscopy: B16F1 cells were seeded in 8-well plates (Nunc) at 1×10^4 cells/well and allowed to adhere overnight. Next, cells were treated with 27 μM of LTX-401 for 60 minutes and labelled with LysoTracker DND-26 for 5 minutes and with Hoecsht33342 for nuclear staining. Cells were immediately investigated on a Zeiss Confocal microscope with a controlled temperature and atmosphere.

A20, murine lymphoma = assay: LysoTracker DND-26 in non-melanocytic cell line; type: cell-based; conditions: data not shown
A375 cells [1] = assay: TEM electron microscopy of A375 cells; type: cell-based, human
Procedure: A375 cells were seeded at 1×10^5 cells per well in 6-well plates and allowed to grow for three days to optimize membrane structures in the culture, and the media was changed on the second day. Cells were washed twice in serum-free RPMI before being treated with LTX-315 dissolved in serum-free RPMI at 5, 10 and 25 μg/ml, with serum-free RPMI as a negative control. Cells were then washed with PBS twice before fixation for 24 hours in 4° C. with 4% formaldehyde and 1% gluteralaldehyde in a Hepes buffer at pH 7.8. Dehydration and post-fixation protocols included incubation in a 5% buffered tannic acid and incubation in a 1% osmium-reduced ferrocyanide. Ultrathin sections were prepared, and uranyl acetate (5%) and Reynolds's lead citrate were used for staining and contrasting. Samples were examined on a JEOL JEM-1010 transmission electron microscope, and images were taken with an Olympus Morada side-mounted TEM CCD camera (Olympus soft imaging solutions, GmbH, Germany).

A375 cells [2] = assay: Confocal imaging with Mitotracker (mitochondrial membrane potential); type: cell-based, human; conditions: short time after peptide treatment; data not shown
Procedure: Fixed cells, mitotracker—Cells were seeded as for live cell imaging, and treated with Mitotracker CMH2XROS (Invitrogen) at […] for 15 minutes prior to peptide treatment. Cells were treated with 17 μM LTX-315, with negative control serum-free RPMI only. After 60 min of incubation, cells were analyzed using a Zeiss microscope.

[3] = tested on: tumour tissue sections from patients; assay: Clinical histology, CD3/CD8 immunostaining of patient tumours; type: in vivo, human
Procedure: Formalin-fixed and paraffin-embedded tumour tissue sections from patients were deparaffinized in xylene and graded alcohols, hydrated and washed in PBS. After antigen retrieval in sodium citrate buffer (pH 6) in a microwave oven, the endogenous peroxidase was blocked by 0.3% H2O2 for 15 min. Sections were incubated overnight at 4° C. with primary antibody; rabbit polyclonal anti-CD3 (clone A0452 Dako) or mouse monoclonal anti-CD8 (clone OX8, ab33786, Abcam). As a secondary antibody, the anti-rabbit-horseradish peroxidase (HRP) SuperPicTure Polymer detection kit (Invitrogen) or Envision system HRP-anti-mouse (Dako) were used. A matched isotype control was used as a control for nonspecific background staining

[4] = tested on: rat transformed mesenchymal stem cell-derived sarcoma (rTMSC); assay: Immunohistochemistry of rat rTMSC tumours; type: in vivo; conditions: primary and secondary tumor tissues
Procedure: (§1) Pre-cultured rat transformed mesenchymal stem cell-derived sarcoma model cells (rTMSCs) were harvested in serum free RPMI-1640 and 200,000 rTMSCs were subcutaneously inoculated in the right flank into PVG rats on day ÷2 and 20,000 rTMSCs in the opposite flank on day 0. Established tumours (25 mm^2 mean tumour size) were injected intralesionally with LTX-315 (dissolved in sterile H2O with 0.9% NaC ) (n=8) or with vehicle (sterile H2O with 0.9% NaCl) (n=6). Treatment doses of LTX-315, 50 μl at […] (1 mg), were given using a 1 ml syringe (Myjector U-100, Terumo) needle 0.5×16 mm (Fine-Ject; Henke-Sass, Wolf GmbH. Injections were provided daily for three subsequent days. Tumour size was measured three times a week using a caliper and expressed as the area of an ellipse [(maximum dimension/2)×(minimum dimension/2)]. Animals were terminated when the tumor exceeded 400 mm^2.
Formalin-fixed and paraffin-embedded tissue sections were deparaffinized in xylene and graded alcohols, hydrated and washed in PBS. After antigen retrieval in sodium citrate buffer (pH 6) in a microwave oven, the endogenous peroxidase was blocked by 0.3% H2O2 for 15 min. Sections were incubated overnight at 4° C. with primary antibody; rabbit polyclonal anti-CD3 (clone A0452 Dako) or mouse monoclonal anti-CD8 (clone OX8, ab33786, Abcam). […]

[5] = tested on: rat transformed mesenchymal stem cell-derived sarcoma (rTMSC); assay: FACS analysis of TILs in rat rTMSC sarcoma model; type: in vivo; conditions: for percentage of T cells / CD8+ cells within the CD3+ T cell population: mean±SD
Procedure: as §1
Single-cell suspensions were prepared from fresh tumour tissue at different time points during the week after LTX-315 treatment. Tumours were gently minced with a razor blade and cut into small pieces (4 mm^2). Tumour tissue was incubated with Liberase TM (Thermolysin Medium; Roche Diagnostics) at a concentration of 0.18 Wünsch units/ml in 10 ml MEM media (Sigma-Aldrich) at 37° C. for 60 min with gentle agitation. The enzymatic digestion was terminated by addition of 2 ml 4° C. FCS (Invitrogen, Thermo Fischer). The cell suspension was filtered through a […] mesh (Cell Strainer; BD), washed in PBS and cells were then directly used for flow cytometric staining.
The mouse monoclonal antibodies against CD4 ([…]) and CD8 ([…]) were isolated from culture supernatants from hybridomas and were kind gifts from the MRC Cellular Immunology Unit, Oxford, UK. They were conjugated at IMB according to standard protocols. Fluorochrome-conjugated mAbs against CD3 (G4.18) was obtained from BD Biosciences, including PerCP Streptavidin. A four-color panel consisting of reagents in FITC/AI488, PE, PerCP Streptavidin and AI647 was applied and analyzed on a FACS Calibur (BD) equipped with the CellQuest software (BD). Dot plot and histogram gates were set using isotype control antibodies.

Cl.Cl.NCCNC(=O)C(CN)(CCCc1ccccc1)CCCc1ccccc1 [LTX-401]
tumour regression / remission (murine B16 melanomas): complete and long-lasting remission; also recorded: complete regression
LysoTracker DND-26 signal (B16F1 cells): induced a decreased signal
LysoTracker DND-26 signal (A20, murine lymphoma): achieved similar results

K-K-W-W-K-K-W-Dip-K-NH2 (KKWWKKW[Dip]K-NH2) [LTX-315]
cells with vacuolization (A375 cells [1]; 3.5 μM): approximately 20%
number of necrotic cells (A375 cells [1]; 3.5 μM, 60 minutes): less than 5%
ultrastructural changes (A375 cells [1]; 3.5 μM, 60 minutes): showed vacuolization, as well as some altering of the mitochondrial morphology
cells displaying vacuolization (A375 cells [1]; 17 μM, 60 min): 4%
cells with necrotic morphology and loss of plasma membrane integrity (A375 cells [1]; 17 μM, 60 min): approximately 40%
mode of cell killing (A375 cells [1]; TEM, A375 cells): kills the tumor cells with a lytic mode of action
Mitotracker mitochondrial signal (A375 cells [2]): loss of mitochondrial signal
infiltration of CD3+ and CD8+ cells ([3]; breast carcinoma patient): infiltration of CD3^+ positive cells
infiltration of CD3+ and CD8+ cells ([3]; desmoid tumour patient): infiltration of CD3^+ positive cells
infiltration of CD8+ cells ([3]; malignant melanoma patient): infiltration of CD8^+ positive cells
infiltration of CD3+ and CD8+ cells ([3]; metastatic melanoma patient): infiltration of CD3^+ positive cells
infiltration of CD3+ and CD8+ cells ([3]; myo-epithelioma patient): infiltration of CD3^+ positive cells
infiltration of CD3+ and CD8+ cells (immunohistochemistry) [4]: increased infiltration of CD3^+ and CD8^+ cells
percentage of T cells ([5]; primary treated lesion): 28.35±11.78%
CD8+ cells within the CD3+ T cell population ([5]; primary tumor of treated rats): 62.77±13.3
CD8+ cells within the CD3+ T cell population ([5]; secondary tumor of treated rats): 45.8±5.4
increase of percentage of T cells compared to untreated rats ([5]; secondary tumor tissue): 3 fold
percentage of T cells ([5]; secondary tumor tissue): 39.83±17.4%
